The source made the active and inactive calls. No rule for the calls is given here.

This note sets out measurements from PubChem BioAssay AID1259407 (Chemical Carcinogenesis Research Information System (CCRIS), 2018).

The test system of this series is CCRIS mutagenicity, Ames/micronucleus/aberration tests. Kind of series: CCRIS mutagenicity studies.
Setting [1] is: Test System: AMES SALMONELLA TYPHIMURIUM, Strain/Indicator: TA98, Metabolic Activation: NONE, Method: PREINCUBATION
Setting [2] is: Test System: AMES SALMONELLA TYPHIMURIUM, Strain/Indicator: TA100, Metabolic Activation: NONE, Method: PREINCUBATION
The mark [3] stands for this setting: Test System: AMES SALMONELLA TYPHIMURIUM, Strain/Indicator: TA102, Metabolic Activation: NONE, Method: PREINCUBATION
Setting [4] is: Test System: AMES SALMONELLA TYPHIMURIUM, Strain/Indicator: TA1535, Metabolic Activation: NONE, Method: PREINCUBATION
The mark [5] stands for this setting: Test System: AMES SALMONELLA TYPHIMURIUM, Strain/Indicator: TA1537, Metabolic Activation: NONE, Method: PREINCUBATION

On to `Cc1cnc[nH]1`, for which the mutagenic call is “inactive; positive in trial 1; negative in trial 2; percentage of pces declined with incre” (End Point: In vivo micronucleus, Test System: Bone marrow polychromatic erythrocytes, Species: Mouse, Strain/Sex: B6C3F1/Male, Route: Intraperitoneal); “inactive; negative (no increase in micronucleus frequencies at all levels; percentage of” (End Point: In vivo micronucleus, Test System: Polychromatic erythrocytes and Normochromatic erythrocytes, Species: Mouse, Strain/Sex: B6C3F1/Female, Route: Oral); “inactive; negative (no increase in micronucleus frequencies at all levels; percentage of” (End Point: In vivo micronucleus, Test System: Polychromatic erythrocytes and Normochromatic erythrocytes, Species: Mouse, Strain/Sex: B6C3F1/Male, Route: Oral); “inactive; negative” under setting [1]; “inactive; negative” (Test System: AMES SALMONELLA TYPHIMURIUM, Strain/Indicator: TA98, Metabolic Activation: RAT LIVER S-9, PHENOBARBITAL AND BETA-NAPHTHOFLAVONE, Method: PREINCUBATION); “inactive; negative” under setting [2]. In addition, the mutagenic call reads like this: (Test System: AMES SALMONELLA TYPHIMURIUM, Strain/Indicator: TA100, Metabolic Activation: RAT LIVER S-9, PHENOBARBITAL AND BETA-NAPHTHOFLAVONE, Method: PREINCUBATION) “inactive; negative”; under setting [3], “inactive; negative”; (Test System: AMES SALMONELLA TYPHIMURIUM, Strain/Indicator: TA102, Metabolic Activation: RAT LIVER S-9, PHENOBARBITAL AND BETA-NAPHTHOFLAVONE, Method: PREINCUBATION) “inactive; negative”; (Test System: AMES SALMONELLA TYPHIMURIUM, Strain/Indicator: TA104, Metabolic Activation: NONE, Method: PREINCUBATION) “inactive; negative”; (Test System: AMES SALMONELLA TYPHIMURIUM, Strain/Indicator: TA104, Metabolic Activation: RAT LIVER S-9, PHENOBARBITAL AND BETA-NAPHTHOFLAVONE, Method: PREINCUBATION) “inactive; negative”; under setting [4], “inactive; negative”. The mutagenic call by setting is: (Test System: AMES SALMONELLA TYPHIMURIUM, Strain/Indicator: TA1535, Metabolic Activation: RAT LIVER S-9, PHENOBARBITAL AND BETA-NAPHTHOFLAVONE, Method: PREINCUBATION) “inactive; negative”; under setting [5], “inactive; negative”; (Test System: AMES SALMONELLA TYPHIMURIUM, Strain/Indicator: TA1537, Metabolic Activation: RAT LIVER S-9, PHENOBARBITAL AND BETA-NAPHTHOFLAVONE, Method: PREINCUBATION) “inactive; negative”; (Test System: Ames Salmonella typhimurium, Strain/Indicator: TA97, Metabolic Activation: Hamster, liver, S-9, Aroclor 1254, Method: Preincubation) “inactive; negative”; (Test System: Ames Salmonella typhimurium, Strain/Indicator: TA97, Metabolic Activation: None, Method: Preincubation) “inactive; negative”; (Test System: Ames Salmonella typhimurium, Strain/Indicator: TA97, Metabolic Activation: Rat, liver, S-9, Aroclor 1254, Method: Preincubation) “inactive; negative”. For the same molecule, the mutagenic call runs as follows: (Test System: Ames Salmonella typhimurium, Strain/Indicator: TA98, Metabolic Activation: Hamster, liver, S-9, Aroclor 1254, Method: Preincubation) “inactive; negative”; (Test System: Ames Salmonella typhimurium, Strain/Indicator: TA98, Metabolic Activation: None, Method: Preincubation) “inactive; negative”; (Test System: Ames Salmonella typhimurium, Strain/Indicator: TA98, Metabolic Activation: Rat, liver, S-9, Aroclor 1254, Method: Preincubation) “inactive; negative”; (Test System: Ames Salmonella typhimurium, Strain/Indicator: TA100, Metabolic Activation: Hamster, liver, S-9, Aroclor 1254, Method: Preincubation) “inactive; negative”; (Test System: Ames Salmonella typhimurium, Strain/Indicator: TA100, Metabolic Activation: None, Method: Preincubation) “inactive; negative”; (Test System: Ames Salmonella typhimurium, Strain/Indicator: TA100, Metabolic Activation: Rat, liver, S-9, Aroclor 1254, Method: Preincubation) “inactive; negative”. In addition, the mutagenic call runs as follows: (Test System: Ames Salmonella typhimurium, Strain/Indicator: TA1535, Metabolic Activation: Hamster, liver, S-9, Aroclor 1254, Method: Preincubation) “inactive; negative”; (Test System: Ames Salmonella typhimurium, Strain/Indicator: TA1535, Metabolic Activation: None, Method: Preincubation) “inactive; negative”; (Test System: Ames Salmonella typhimurium, Strain/Indicator: TA1535, Metabolic Activation: Rat, liver, S-9, Aroclor 1254, Method: Preincubation) “inactive; negative”; (Test System: E.COLI, Strain/Indicator: WP2UVRA/PKM101, Metabolic Activation: NONE, Method: PREINCUBATION) “inactive; negative”; (Test System: E.COLI, Strain/Indicator: WP2UVRA/PKM101, Metabolic Activation: RAT LIVER S-9, PHENOBARBITAL AND BETA-NAPHTHOFLAVONE, Method: PREINCUBATION) “inactive; negative”; (Test System: E.COLI, Strain/Indicator: WP2UVRA, Metabolic Activation: NONE, Method: PREINCUBATION) “inactive; negative”. Further, the mutagenic call (Test System: E.COLI, Strain/Indicator: WP2UVRA, Metabolic Activation: RAT LIVER S-9, PHENOBARBITAL AND BETA-NAPHTHOFLAVONE, Method: PREINCUBATION) is “inactive; negative”.
`OC1C=Cc2c(cc3ccc4cccc5ccc2c3c45)C1` (configuration not stated): the mutagenic call (Test System: AMES SALMONELLA TYPHIMURIUM, Strain/Indicator: TA98, Metabolic Activation: RAT, LIVER, S-9, AROCLOR 1254, Method: STANDARD PLATE) was “active; positive”.
Consider `CC1=NCCc2c1[nH]c1cc(O)ccc21`, for which the mutagenic call is “inactive; negative” (Test System: AMES SALMONELLA TYPHIMURIUM, Strain/Indicator: TA97, Metabolic Activation: NONE, Method: PREINCUBATION); “inactive; negative” (Test System: AMES SALMONELLA TYPHIMURIUM, Strain/Indicator: TA97, Metabolic Activation: RAT, LIVER, S-9, AROCLOR 1254, Method: PREINCUBATION); “inactive; negative” under setting [1]; “inactive; negative” (Test System: AMES SALMONELLA TYPHIMURIUM, Strain/Indicator: TA98, Metabolic Activation: RAT, LIVER, S-9, AROCLOR 1254, Method: PREINCUBATION); “inactive; negative” under setting [2]; “inactive; negative” (Test System: AMES SALMONELLA TYPHIMURIUM, Strain/Indicator: TA100, Metabolic Activation: RAT, LIVER, S-9, AROCLOR 1254, Method: PREINCUBATION). For the same molecule, the mutagenic call was “inactive; negative” under setting [3] and “inactive; negative” (Test System: AMES SALMONELLA TYPHIMURIUM, Strain/Indicator: TA102, Metabolic Activation: RAT, LIVER, S-9, AROCLOR 1254, Method: PREINCUBATION).
With `Nc1ccc2c(c1)C(=O)/C(=N/Nc1ccc(-c3ccc(N/N=C4/C(=O)c5c(N)cc(S(=O)(=O)O)cc5C=C4S(=O)(=O)O)cc3)cc1)C(S(=O)(=O)O)=C2`, the mutagenic call (Test System: AMES SALMONELLA TYPHIMURIUM, Strain/Indicator: TA98, Metabolic Activation: HAMSTER, LIVER, S-9, AROCLOR 1254 (10%), Method: PREINCUBATION) was “active; positive”; the mutagenic call under setting [1] was “active; positive”; the mutagenic call (Test System: AMES SALMONELLA TYPHIMURIUM, Strain/Indicator: TA98, Metabolic Activation: RAT, LIVER, S-9, AROCLOR 1254 (10%), Method: PREINCUBATION) was “inactive; negative”; the mutagenic call (Test System: AMES SALMONELLA TYPHIMURIUM, Strain/Indicator: TA100, Metabolic Activation: HAMSTER, LIVER, S-9, AROCLOR 1254 (10%), Method: PREINCUBATION) is “inactive; negative”; the mutagenic call under setting [2] was “inactive; negative”; the mutagenic call (Test System: AMES SALMONELLA TYPHIMURIUM, Strain/Indicator: TA100, Metabolic Activation: RAT, LIVER, S-9, AROCLOR 1254 (10%), Method: PREINCUBATION) is “inactive; negative”. In addition, the mutagenic call by setting is: (Test System: AMES SALMONELLA TYPHIMURIUM, Strain/Indicator: TA1535, Metabolic Activation: HAMSTER, LIVER, S-9, AROCLOR 1254 (10%), Method: PREINCUBATION) “inactive; negative”; under setting [4], “inactive; negative”; (Test System: AMES SALMONELLA TYPHIMURIUM, Strain/Indicator: TA1535, Metabolic Activation: RAT, LIVER, S-9, AROCLOR 1254 (10%), Method: PREINCUBATION) “inactive; negative”; (Test System: AMES SALMONELLA TYPHIMURIUM, Strain/Indicator: TA1537, Metabolic Activation: HAMSTER, LIVER, S-9, AROCLOR 1254 (10%), Method: PREINCUBATION) “inactive; negative”; under setting [5], “active; positive”; (Test System: AMES SALMONELLA TYPHIMURIUM, Strain/Indicator: TA1537, Metabolic Activation: RAT, LIVER, S-9, AROCLOR 1254 (10%), Method: PREINCUBATION) “inactive; negative”.
